Measurements from publication PMC6199744, “Development of Chemical Proteomics for the Folateome and Analysis of the Kinetoplastid Folateome” (ACS Infectious Diseases, 2018).
Like-named read-outs stand apart in the source and are kept apart here.

Columns and labels:
Format in all cases: binding
[1] = target: T1, HeLa cell extract proteins (Homo sapiens, UniProt P08237)
T1 construct: endogenous in cells; host or cells: HeLa cell extract
T1 sequence (P08237 1-780): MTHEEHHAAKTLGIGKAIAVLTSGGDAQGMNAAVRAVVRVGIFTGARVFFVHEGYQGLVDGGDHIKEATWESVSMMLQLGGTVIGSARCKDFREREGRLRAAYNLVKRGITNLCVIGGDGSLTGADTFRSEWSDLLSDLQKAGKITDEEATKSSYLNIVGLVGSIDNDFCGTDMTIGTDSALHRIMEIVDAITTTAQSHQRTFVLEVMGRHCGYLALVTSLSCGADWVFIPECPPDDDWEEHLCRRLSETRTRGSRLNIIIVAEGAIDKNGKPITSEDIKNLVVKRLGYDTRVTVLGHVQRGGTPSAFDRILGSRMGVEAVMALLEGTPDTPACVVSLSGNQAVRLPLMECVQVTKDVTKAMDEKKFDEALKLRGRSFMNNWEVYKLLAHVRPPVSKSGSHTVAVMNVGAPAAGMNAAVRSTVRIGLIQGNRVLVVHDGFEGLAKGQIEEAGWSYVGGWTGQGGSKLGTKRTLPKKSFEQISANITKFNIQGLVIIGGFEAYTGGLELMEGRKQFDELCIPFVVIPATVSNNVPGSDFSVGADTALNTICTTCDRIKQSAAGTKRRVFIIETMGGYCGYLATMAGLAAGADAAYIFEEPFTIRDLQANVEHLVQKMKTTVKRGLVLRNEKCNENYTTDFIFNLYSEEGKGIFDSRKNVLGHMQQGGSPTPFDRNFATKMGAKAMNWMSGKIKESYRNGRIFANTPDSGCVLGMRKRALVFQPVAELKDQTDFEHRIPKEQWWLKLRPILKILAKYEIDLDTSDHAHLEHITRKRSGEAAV

[2] = target: T2, HeLa cell extract proteins (Homo sapiens, UniProt P12270)
T2 construct: endogenous in cells; host or cells: HeLa cell extract
T2 sequence (P12270 whole entry): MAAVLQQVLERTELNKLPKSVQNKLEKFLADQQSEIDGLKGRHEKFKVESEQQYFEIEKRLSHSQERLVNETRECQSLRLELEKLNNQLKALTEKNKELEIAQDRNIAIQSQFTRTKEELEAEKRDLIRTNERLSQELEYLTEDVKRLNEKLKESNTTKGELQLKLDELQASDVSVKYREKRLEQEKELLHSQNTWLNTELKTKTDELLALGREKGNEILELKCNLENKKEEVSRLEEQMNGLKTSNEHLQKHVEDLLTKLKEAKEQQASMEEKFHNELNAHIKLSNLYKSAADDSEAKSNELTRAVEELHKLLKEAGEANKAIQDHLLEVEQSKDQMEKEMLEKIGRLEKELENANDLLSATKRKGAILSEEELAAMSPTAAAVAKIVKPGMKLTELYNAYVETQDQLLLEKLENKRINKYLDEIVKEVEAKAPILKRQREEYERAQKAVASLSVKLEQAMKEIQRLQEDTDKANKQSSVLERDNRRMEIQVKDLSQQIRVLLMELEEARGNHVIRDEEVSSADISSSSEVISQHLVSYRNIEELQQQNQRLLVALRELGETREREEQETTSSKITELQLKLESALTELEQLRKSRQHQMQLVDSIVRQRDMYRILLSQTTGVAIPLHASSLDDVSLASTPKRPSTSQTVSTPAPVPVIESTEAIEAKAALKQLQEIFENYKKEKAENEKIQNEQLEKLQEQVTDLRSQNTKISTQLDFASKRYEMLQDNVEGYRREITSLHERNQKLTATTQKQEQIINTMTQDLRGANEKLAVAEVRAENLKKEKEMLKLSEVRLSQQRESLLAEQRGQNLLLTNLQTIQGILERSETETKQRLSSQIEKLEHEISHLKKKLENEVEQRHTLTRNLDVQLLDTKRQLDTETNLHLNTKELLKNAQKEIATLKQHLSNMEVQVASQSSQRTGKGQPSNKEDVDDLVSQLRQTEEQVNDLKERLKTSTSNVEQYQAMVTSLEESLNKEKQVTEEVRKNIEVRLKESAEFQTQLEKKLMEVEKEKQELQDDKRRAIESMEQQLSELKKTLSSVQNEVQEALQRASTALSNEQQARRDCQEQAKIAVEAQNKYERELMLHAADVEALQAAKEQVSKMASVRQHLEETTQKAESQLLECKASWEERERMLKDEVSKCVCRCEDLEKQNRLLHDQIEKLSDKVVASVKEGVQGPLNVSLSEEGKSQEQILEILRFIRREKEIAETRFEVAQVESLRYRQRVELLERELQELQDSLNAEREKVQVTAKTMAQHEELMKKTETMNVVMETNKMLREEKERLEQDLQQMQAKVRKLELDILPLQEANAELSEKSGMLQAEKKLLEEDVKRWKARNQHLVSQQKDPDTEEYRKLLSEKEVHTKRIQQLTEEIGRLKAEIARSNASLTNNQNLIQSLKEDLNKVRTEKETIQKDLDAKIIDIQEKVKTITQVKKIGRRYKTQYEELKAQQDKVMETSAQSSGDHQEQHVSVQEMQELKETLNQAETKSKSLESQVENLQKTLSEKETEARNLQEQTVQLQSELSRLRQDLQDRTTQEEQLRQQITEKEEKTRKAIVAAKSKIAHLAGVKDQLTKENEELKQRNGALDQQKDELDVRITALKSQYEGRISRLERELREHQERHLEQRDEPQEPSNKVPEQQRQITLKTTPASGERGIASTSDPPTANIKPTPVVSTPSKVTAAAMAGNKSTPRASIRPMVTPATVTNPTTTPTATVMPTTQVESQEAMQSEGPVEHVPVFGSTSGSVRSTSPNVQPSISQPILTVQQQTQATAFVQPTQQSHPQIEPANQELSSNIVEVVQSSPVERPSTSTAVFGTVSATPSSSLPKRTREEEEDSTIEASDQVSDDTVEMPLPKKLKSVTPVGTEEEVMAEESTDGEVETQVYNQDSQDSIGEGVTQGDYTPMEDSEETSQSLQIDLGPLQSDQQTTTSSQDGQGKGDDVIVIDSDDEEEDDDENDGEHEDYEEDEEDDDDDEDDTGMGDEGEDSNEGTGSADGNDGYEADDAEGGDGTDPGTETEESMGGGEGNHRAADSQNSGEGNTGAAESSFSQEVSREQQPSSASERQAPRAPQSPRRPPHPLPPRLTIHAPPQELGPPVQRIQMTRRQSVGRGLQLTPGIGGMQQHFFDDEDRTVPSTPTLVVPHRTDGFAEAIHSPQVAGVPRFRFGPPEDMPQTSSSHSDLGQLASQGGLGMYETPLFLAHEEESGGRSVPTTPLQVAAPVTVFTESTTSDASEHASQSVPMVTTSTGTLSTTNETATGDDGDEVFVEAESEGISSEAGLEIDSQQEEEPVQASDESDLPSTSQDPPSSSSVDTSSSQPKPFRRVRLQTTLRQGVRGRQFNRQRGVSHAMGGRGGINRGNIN

[3] = target: T3, HeLa cell extract proteins (Homo sapiens, UniProt P27708)
T3 construct: endogenous in cells; host or cells: HeLa cell extract

[4] = target: T4, HeLa cell extract proteins (Homo sapiens, UniProt Q00610)
T4 construct: endogenous in cells; host or cells: HeLa cell extract
T4 sequence (Q00610 whole entry): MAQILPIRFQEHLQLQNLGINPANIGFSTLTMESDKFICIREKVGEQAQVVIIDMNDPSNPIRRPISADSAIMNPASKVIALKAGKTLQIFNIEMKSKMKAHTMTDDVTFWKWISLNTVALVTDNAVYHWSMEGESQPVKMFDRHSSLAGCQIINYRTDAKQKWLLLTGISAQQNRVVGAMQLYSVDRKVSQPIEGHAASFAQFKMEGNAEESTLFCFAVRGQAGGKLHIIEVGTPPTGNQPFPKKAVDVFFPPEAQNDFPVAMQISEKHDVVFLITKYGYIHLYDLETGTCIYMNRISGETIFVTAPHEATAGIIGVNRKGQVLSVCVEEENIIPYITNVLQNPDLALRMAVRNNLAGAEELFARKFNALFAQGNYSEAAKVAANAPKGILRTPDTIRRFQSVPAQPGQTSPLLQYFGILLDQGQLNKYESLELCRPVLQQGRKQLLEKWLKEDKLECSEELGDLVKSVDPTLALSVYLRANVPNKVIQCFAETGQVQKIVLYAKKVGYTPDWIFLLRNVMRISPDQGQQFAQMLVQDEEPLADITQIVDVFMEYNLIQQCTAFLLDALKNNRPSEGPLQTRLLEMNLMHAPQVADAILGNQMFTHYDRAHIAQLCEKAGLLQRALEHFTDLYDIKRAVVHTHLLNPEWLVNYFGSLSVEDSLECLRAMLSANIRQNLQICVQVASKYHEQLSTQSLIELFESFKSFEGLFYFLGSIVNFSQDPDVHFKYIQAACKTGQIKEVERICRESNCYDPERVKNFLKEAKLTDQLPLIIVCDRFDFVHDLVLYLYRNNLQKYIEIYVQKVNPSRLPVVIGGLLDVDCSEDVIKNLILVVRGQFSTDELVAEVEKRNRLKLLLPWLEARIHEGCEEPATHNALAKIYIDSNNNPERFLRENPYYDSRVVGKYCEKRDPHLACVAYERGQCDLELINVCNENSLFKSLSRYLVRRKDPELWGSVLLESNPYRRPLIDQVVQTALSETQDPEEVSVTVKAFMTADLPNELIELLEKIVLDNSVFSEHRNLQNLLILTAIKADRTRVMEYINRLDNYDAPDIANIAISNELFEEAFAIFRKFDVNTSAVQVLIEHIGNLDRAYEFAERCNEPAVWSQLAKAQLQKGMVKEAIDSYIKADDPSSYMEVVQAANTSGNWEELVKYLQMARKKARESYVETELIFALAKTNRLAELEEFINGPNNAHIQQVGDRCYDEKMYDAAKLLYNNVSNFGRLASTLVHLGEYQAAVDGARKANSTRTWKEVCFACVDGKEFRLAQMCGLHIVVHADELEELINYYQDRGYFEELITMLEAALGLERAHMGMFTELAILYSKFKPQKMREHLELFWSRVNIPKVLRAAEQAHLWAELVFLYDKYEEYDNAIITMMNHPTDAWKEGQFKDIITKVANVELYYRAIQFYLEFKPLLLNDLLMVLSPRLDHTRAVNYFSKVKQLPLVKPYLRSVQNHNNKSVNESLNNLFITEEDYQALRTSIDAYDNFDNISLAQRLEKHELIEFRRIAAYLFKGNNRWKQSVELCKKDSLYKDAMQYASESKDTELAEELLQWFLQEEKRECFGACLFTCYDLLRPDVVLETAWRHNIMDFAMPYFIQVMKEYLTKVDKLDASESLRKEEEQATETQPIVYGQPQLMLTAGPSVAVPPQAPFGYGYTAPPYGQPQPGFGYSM

[5] = target: T5, HeLa cell extract proteins (Homo sapiens, UniProt Q08209)
T5 construct: endogenous in cells; host or cells: HeLa cell extract

[6] = target: T6, HeLa cell extract proteins (Homo sapiens, UniProt Q14697)
T6 construct: endogenous in cells; host or cells: HeLa cell extract
T6 sequence (Q14697 29-944): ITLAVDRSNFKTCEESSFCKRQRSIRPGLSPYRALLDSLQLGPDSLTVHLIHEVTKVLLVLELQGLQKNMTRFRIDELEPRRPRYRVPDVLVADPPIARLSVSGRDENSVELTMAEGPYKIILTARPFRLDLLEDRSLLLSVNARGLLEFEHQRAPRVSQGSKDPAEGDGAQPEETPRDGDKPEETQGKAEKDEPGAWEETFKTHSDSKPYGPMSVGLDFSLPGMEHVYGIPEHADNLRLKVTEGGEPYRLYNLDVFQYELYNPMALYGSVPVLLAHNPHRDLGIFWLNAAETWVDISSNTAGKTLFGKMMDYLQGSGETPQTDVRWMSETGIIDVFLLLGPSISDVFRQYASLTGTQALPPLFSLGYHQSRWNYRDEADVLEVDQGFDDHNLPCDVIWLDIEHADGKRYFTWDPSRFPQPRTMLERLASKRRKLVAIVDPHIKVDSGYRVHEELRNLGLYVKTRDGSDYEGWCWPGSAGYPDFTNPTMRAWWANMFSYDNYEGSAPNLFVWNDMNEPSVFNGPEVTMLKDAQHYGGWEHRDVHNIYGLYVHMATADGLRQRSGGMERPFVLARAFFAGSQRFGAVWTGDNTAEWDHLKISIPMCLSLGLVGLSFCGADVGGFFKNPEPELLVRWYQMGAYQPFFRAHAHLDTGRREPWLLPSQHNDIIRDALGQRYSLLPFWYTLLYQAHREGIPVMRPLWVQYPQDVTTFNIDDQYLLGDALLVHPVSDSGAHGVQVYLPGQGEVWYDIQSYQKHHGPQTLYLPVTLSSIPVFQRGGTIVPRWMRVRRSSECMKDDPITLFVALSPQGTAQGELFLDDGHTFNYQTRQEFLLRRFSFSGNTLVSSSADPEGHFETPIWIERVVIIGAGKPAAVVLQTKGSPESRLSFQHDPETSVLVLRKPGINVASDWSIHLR

[7] = target: T7, HeLa cell extract proteins (Homo sapiens, UniProt Q5T4S7)
T7 construct: endogenous in cells; host or cells: HeLa cell extract

[8] = target: T8, HeLa cell extract proteins (Homo sapiens, UniProt Q9Y5Y0)
T8 construct: endogenous in cells; host or cells: HeLa cell extract
T8 sequence (Q9Y5Y0 1-555): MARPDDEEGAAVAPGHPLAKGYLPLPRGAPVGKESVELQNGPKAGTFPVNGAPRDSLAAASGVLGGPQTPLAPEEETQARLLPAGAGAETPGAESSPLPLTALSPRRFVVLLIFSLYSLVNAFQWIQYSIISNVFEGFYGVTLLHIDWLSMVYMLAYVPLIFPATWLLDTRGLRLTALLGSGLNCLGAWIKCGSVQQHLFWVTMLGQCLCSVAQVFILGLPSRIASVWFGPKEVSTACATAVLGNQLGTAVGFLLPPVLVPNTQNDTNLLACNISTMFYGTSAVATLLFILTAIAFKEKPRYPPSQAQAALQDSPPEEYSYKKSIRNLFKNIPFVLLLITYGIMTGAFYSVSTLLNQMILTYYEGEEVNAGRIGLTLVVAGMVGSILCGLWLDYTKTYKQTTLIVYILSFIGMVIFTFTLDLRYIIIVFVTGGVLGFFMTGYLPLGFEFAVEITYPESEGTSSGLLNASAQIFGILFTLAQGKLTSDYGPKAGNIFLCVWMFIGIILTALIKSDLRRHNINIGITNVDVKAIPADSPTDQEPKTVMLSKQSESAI

[9] = HeLa, protein CLTC (ISOFORM 1 OF CLATHRIN HEAVY CHAIN 1)

SMILES	fold changes relative to vehicle control ([1]; captured protein PFKM, HeLa)	fold changes relative to vehicle control ([2]; protein TPR, HeLa)	fold changes relative to vehicle control ([3]; captured protein CAD, HeLa)	fold changes relative to vehicle control ([4]; protein CLTC, HeLa)	fold changes relative to vehicle control ([5]; HeLa, protein PPP3CA)	fold changes relative to vehicle control ([6]; protein GANAB, HeLa)	fold changes relative to vehicle control ([7]; protein UBR4, HeLa)	fold changes relative to vehicle control ([8]; HeLa, protein FLVCR1)	fold changes relative to vehicle control ([1]; HeLa, captured protein PFKM)	fold changes relative to vehicle control ([2]; HeLa, captured protein TPR)	fold changes relative to vehicle control ([3]; protein CAD, HeLa)	fold changes relative to vehicle control [4, 9]	fold changes relative to vehicle control ([6]; HeLa, protein GANAB)	fold changes relative to vehicle control ([8]; protein FLVCR1, HeLa)	further results
Nc1nc2cccc(-c3ccccc3)c2n1Cc1ccc(Cl)c(Cl)c1 [compound 3]	1.01	1.2	1.14	1.2	1.03	0.94	1.08	0.75							
Nc1nc2[nH]cc(CCc3ccc(C(=O)N[C@@H](CCC(=O)O)C(=O)O)cc3)c2c(=O)[nH]1 [PTX, pemetrexed]															fold changes relative to vehicle control [1]: 0.98; fold changes relative to vehicle control [2]: 1.21; fold changes relative to vehicle control [3]: 0.52; fold changes relative to vehicle control [4]: 1.24; fold changes relative to vehicle control [5]: 0.91; fold changes relative to vehicle control [6]: 1; fold changes relative to vehicle control [7]: 0.94; fold changes relative to vehicle control [8]: 0.59
Nc1nc2c(c(=O)[nH]1)N(C=O)C(CNc1ccc(C(=O)N[C@@H](CCC(=O)O)C(=O)O)cc1)CN2 (some centres unmarked) [LEU, leucovorin]					0.97		1.02		1.01	1.35	1.34	1.27	0.99	0.57	
CCCCCCOc1cccc(Cc2cnc(N)nc2N)c1 [compound 2]	1.2	1.44	1.01	1.07	1.13	1.28	1.19	0.95							
NCCOCCOCC(=O)Nc1nc2ncc(CNc3ccc(C(=O)NC(CCC(=O)O)C(=O)O)cc3)nc2c(=O)[nH]1 (centres unmarked) [compound 6]					0.95		0.42		1.02	1.51	1.18	1.11	1.1	0.62	
CCCCCCOc1ccc(Cc2cnc(N)nc2N)cc1 [compound 1]	1.15	1.19	1.1	0.83	1.1	1.08	1.14	0.78							
NCCCNc1ccc(C(=O)NC(CCC(=O)O)C(=O)O)cc1 (centres unmarked) [compound 7]					0.85		1.02		1.02	1.06	1.3	1.18	0.97	0.57	
